Measurements as given in patent publication US12679878B2, “CRF2 receptor agonists and their use in therapy” (SANOFI, priority 2020, dated 2026).
Where two headings read alike, the source gives them in different places. Starred links: 1 amine or outer side, 2 acyl side, 3 side chain; linkers in the order of their positions; H or OH if unused. Non-standard residues stand in square brackets, D forms with d. Residues, ends and D or L forms follow the SMILES beside them. Groups on a side chain read outwards from the residue. *: point of attachment. C20 diacid = O=C(O)CCCCCCCCCCCCCCCCCCC(=O)*; C18 diacid = O=C(O)CCCCCCCCCCCCCCCCC(=O)*; γGlu = O=C(O)[C@H](CCC(=O)[*:2])N[*:1]; AEEA = NCCOCCOCC(=O)O; Aib = CC(C)(N)C(=O)O

Target: T1, human CRF2α receptor (Homo sapiens, UniProt Q13324)
T1 construct: expressed in transfected cells; host or cells: TeloHEAC
T1 sequence (Q13324 1-411): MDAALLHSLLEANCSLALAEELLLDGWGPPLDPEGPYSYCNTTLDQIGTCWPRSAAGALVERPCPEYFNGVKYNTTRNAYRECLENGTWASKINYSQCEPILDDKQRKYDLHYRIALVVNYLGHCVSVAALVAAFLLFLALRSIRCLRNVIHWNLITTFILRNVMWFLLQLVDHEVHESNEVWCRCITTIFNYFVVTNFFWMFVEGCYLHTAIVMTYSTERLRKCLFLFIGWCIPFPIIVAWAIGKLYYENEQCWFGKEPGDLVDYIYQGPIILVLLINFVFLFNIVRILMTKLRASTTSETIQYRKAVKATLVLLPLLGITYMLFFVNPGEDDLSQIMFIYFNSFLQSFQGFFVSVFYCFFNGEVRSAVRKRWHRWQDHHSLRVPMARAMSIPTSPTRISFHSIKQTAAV
Assay: cAMP agonism at human CRF2 α receptor in TeloHEAC cells (Example 7)
Format: cell-based
Conditions: cAMP HTRF, TeloHEAC cells stably expressing human CRF2 α
In short: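 Cryopreserved cells are thawed, washed and resuspended in IBMX-containing (2 mM) HEPES-buffered HBSS with or without 0.1% HSA. Compound incubation runs 30 min at room temperature with 2000 cells per well, then cAMP is measured by time-resolved FRET. Potency is expressed as EC50, efficacy relative to urocortin 2 at 1000 nM.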

[1] = 0% HSA, read-out: EC50 [nM], 0% HSA
[2] = 0.1% HSA, read-out: EC50 [nM], 0.1% HSA

Row | EC50 [1] [nM] | EC50 [2] [nM] | Structure (SMILES)
1 | 0.11 | 3.05 | CC[C@H](C)[C@H](N)C(=O)N[C@H](C(=O)N[C@@H](CC(C)C)C(=O)N[C@@H](CO)C(=O)N[C@@H](CC(C)C)C(=O)N[C@@H](CC(=O)O)C(=O)N[C@@H](C(=O)N1CCC[C@H]1C(=O)N[C@H](C(=O)N[C@@H](CCCCN)C(=O)N[C@@H](CC(C)C)C(=O)N[C@@H](CCCCNC(=O)COCCOCCNC(=O)COCCOCCNC(=O)CC[C@H](NC(=O)CC[C@H](NC(=O)CCCCCCCCCCCCCCCCC(=O)O)C(=O)O)C(=O)O)C(=O)N[C@@H](CCC(N)=O)C(=O)N[C@H](C(=O)N[C@@H](CC(C)C)C(=O)N[C@@H](CC(C)C)C(=O)N[C@@H](CCCCN)C(=O)N[C@@H](CCC(N)=O)C(=O)N[C@@H](CCC(=O)O)C(=O)N[C@@H](CCCNC(=N)N)C(=O)N[C@@H](CCC(N)=O)C(=O)N[C@@H](CCCCN)C(=O)N[C@@H](CCCCN)C(=O)N[C@@H](CCC(N)=O)C(=O)N[C@@H](CCCNC(=N)N)C(=O)N[C@@H](CCC(N)=O)C(=O)N[C@@H](CCC(N)=O)C(=O)N[C@@H](C)C(=O)N[C@@H](CCC(=O)O)C(=O)N[C@@H](CCCCN)C(=O)N[C@@H](CC(N)=O)C(=O)N[C@@H](CCCCN)C(=O)N[C@@H](CCC(N)=O)C(=O)N[C@H](C(=O)N[C@@H](CC(C)C)C(=O)N[C@@H](C)C(=O)N[C@@H](CCC(N)=O)C(=O)N[C@H](C(N)=O)C(C)C)[C@@H](C)CC)[C@@H](C)CC)[C@@H](C)CC)C(C)C)C(C)C [compound 176] (H-IVLSLD[dV]PIKLK([AEEA-AEEA-γGlu-γGlu-C18 diacid])QILLKQERQKKQRQQAEKNKQILAQV-NH2; N-terminus assumed)
2 | 0.07 | 5.19 | CC[C@H](C)[C@H](N)C(=O)N[C@H](C(=O)N[C@@H](CC(C)C)C(=O)N[C@@H](CO)C(=O)N[C@@H](CC(C)C)C(=O)N[C@@H](CC(=O)O)C(=O)N[C@@H](C(=O)N1CCC[C@H]1C(=O)N[C@H](C(=O)N[C@@H](CCCCN)C(=O)N[C@@H](CC(C)C)C(=O)N[C@@H](CCCCNC(=O)COCCOCCNC(=O)COCCOCCNC(=O)CC[C@H](NC(=O)CC[C@H](NC(=O)CCCCCCCCCCCCCCCCCCC(=O)O)C(=O)O)C(=O)O)C(=O)N[C@@H](CCC(N)=O)C(=O)N[C@H](C(=O)N[C@@H](CC(C)C)C(=O)N[C@@H](CC(C)C)C(=O)N[C@@H](CCCCN)C(=O)N[C@@H](CCC(N)=O)C(=O)N[C@@H](CCC(=O)O)C(=O)N[C@@H](CCCNC(=N)N)C(=O)N[C@@H](CCC(N)=O)C(=O)N[C@@H](CCCCN)C(=O)N[C@@H](CCCCN)C(=O)N[C@@H](CCC(N)=O)C(=O)N[C@@H](CCCNC(=N)N)C(=O)N[C@@H](CCC(N)=O)C(=O)N[C@@H](CCC(N)=O)C(=O)N[C@@H](C)C(=O)N[C@@H](CCC(=O)O)C(=O)N[C@@H](CCCCN)C(=O)N[C@@H](CC(N)=O)C(=O)N[C@@H](CCCCN)C(=O)N[C@@H](CCC(N)=O)C(=O)N[C@H](C(=O)N[C@@H](CC(C)C)C(=O)N[C@@H](C)C(=O)N[C@@H](CCC(N)=O)C(=O)N[C@H](C(N)=O)C(C)C)[C@@H](C)CC)[C@@H](C)CC)[C@@H](C)CC)C(C)C)C(C)C [compound 177] (H-IVLSLD[dV]PIKLK([AEEA-AEEA-γGlu-γGlu-C20 diacid])QILLKQERQKKQRQQAEKNKQILAQV-NH2)
3 | 0.04 | 3.77 | CC[C@H](C)[C@H](N)C(=O)N[C@H](C(=O)N[C@@H](CC(C)C)C(=O)N[C@@H](CO)C(=O)N[C@@H](CC(C)C)C(=O)N[C@@H](CC(=O)O)C(=O)N[C@@H](C(=O)N1CCC[C@H]1C(=O)N[C@H](C(=O)N[C@@H](CCCCN)C(=O)N[C@@H](CC(C)C)C(=O)N[C@@H](CCCCNC(=O)COCCOCCNC(=O)COCCOCCNC(=O)CC[C@H](NC(=O)CCCCCCCCCCCCCCCCCCC(=O)O)C(=O)O)C(=O)N[C@@H](CCC(N)=O)C(=O)N[C@H](C(=O)N[C@@H](CC(C)C)C(=O)N[C@@H](CC(C)C)C(=O)N[C@@H](CCCCN)C(=O)N[C@@H](CCC(N)=O)C(=O)N[C@@H](CCC(=O)O)C(=O)N[C@@H](CCCNC(=N)N)C(=O)N[C@@H](CCC(N)=O)C(=O)N[C@@H](CCCCN)C(=O)N[C@@H](CCCCN)C(=O)N[C@@H](CCC(N)=O)C(=O)N[C@@H](CCCNC(=N)N)C(=O)N[C@@H](CCC(N)=O)C(=O)N[C@@H](CCC(N)=O)C(=O)N[C@@H](C)C(=O)N[C@@H](CCC(=O)O)C(=O)N[C@@H](CCCCN)C(=O)N[C@@H](CC(N)=O)C(=O)N[C@@H](CCCCN)C(=O)N[C@@H](CCC(N)=O)C(=O)N[C@H](C(=O)N[C@@H](CC(C)C)C(=O)N[C@@H](C)C(=O)N[C@@H](CCC(N)=O)C(=O)N[C@H](C(N)=O)C(C)C)[C@@H](C)CC)[C@@H](C)CC)[C@@H](C)CC)C(C)C)C(C)C [compound 178] (H-IVLSLD[dV]PIKLK([AEEA-AEEA-γGlu-C20 diacid])QILLKQERQKKQRQQAEKNKQILAQV-NH2; N-terminus assumed)
4 | 0.03 | 1.88 | CC[C@H](C)[C@H](N)C(=O)N[C@H](C(=O)N[C@@H](CC(C)C)C(=O)N[C@@H](CO)C(=O)N[C@@H](CC(C)C)C(=O)N[C@@H](CC(=O)O)C(=O)N[C@@H](C(=O)N1CCC[C@H]1C(=O)N[C@H](C(=O)N[C@@H](CCCCN)C(=O)N[C@@H](CC(C)C)C(=O)N[C@@H](CCCCNC(=O)CC[C@H](NC(=O)CCCCCCCCCCCCCCCCC(=O)O)C(=O)O)C(=O)N[C@@H](CCC(N)=O)C(=O)N[C@H](C(=O)N[C@@H](CC(C)C)C(=O)N[C@@H](CC(C)C)C(=O)N[C@@H](CCCCN)C(=O)N[C@@H](CCC(N)=O)C(=O)N[C@@H](CCC(=O)O)C(=O)N[C@@H](CCCNC(=N)N)C(=O)N[C@@H](CCC(N)=O)C(=O)N[C@@H](CCCCN)C(=O)NC(C)(C)C(=O)N[C@@H](CCC(N)=O)C(=O)N[C@@H](CCCNC(=N)N)C(=O)N[C@@H](CCC(=O)O)C(=O)N[C@@H](CCC(N)=O)C(=O)N[C@@H](C)C(=O)N[C@@H](CCC(=O)O)C(=O)N[C@@H](CCCCN)C(=O)N[C@@H](CC(N)=O)C(=O)N[C@@H](CCCCN)C(=O)N[C@@H](CCC(N)=O)C(=O)N[C@H](C(=O)N[C@@H](CC(C)C)C(=O)N[C@@H](C)C(=O)N[C@@H](CCC(N)=O)C(=O)N[C@H](C(N)=O)C(C)C)[C@@H](C)CC)[C@@H](C)CC)[C@@H](C)CC)C(C)C)C(C)C [compound 179] (H-IVLSLD[dV]PIKLK([γGlu-C18 diacid])QILLKQERQK[Aib]QREQAEKNKQILAQV-NH2; N-terminus assumed)
5 | 0.05 | 1.74 | CC[C@H](C)[C@H](N)C(=O)N[C@H](C(=O)N[C@@H](CC(C)C)C(=O)N[C@@H](CO)C(=O)N[C@@H](CC(C)C)C(=O)N[C@@H](CC(=O)O)C(=O)N[C@@H](C(=O)N1CCC[C@H]1C(=O)N[C@H](C(=O)N[C@@H](CCCCN)C(=O)N[C@@H](CC(C)C)C(=O)N[C@@H](CCCCNC(=O)CC[C@H](NC(=O)CCCCCCCCCCCCCCCCC(=O)O)C(=O)O)C(=O)N[C@@H](CCC(N)=O)C(=O)N[C@H](C(=O)N[C@@H](CC(C)C)C(=O)N[C@@H](CC(C)C)C(=O)N[C@@H](CCCCN)C(=O)N[C@@H](CCC(N)=O)C(=O)N[C@@H](C)C(=O)N[C@@H](CCCNC(=N)N)C(=O)N[C@@H](CCC(N)=O)C(=O)N[C@@H](CCCCN)C(=O)NC(C)(C)C(=O)N[C@@H](CCC(N)=O)C(=O)N[C@@H](CCCNC(=N)N)C(=O)N[C@@H](C)C(=O)N[C@@H](CCC(N)=O)C(=O)N[C@@H](C)C(=O)N[C@@H](CCC(=O)O)C(=O)N[C@@H](CCCCN)C(=O)N[C@@H](CC(N)=O)C(=O)N[C@@H](CCCCN)C(=O)N[C@@H](CCCNC(=N)N)C(=O)N[C@H](C(=O)N[C@@H](CC(C)C)C(=O)N[C@@H](CCC(=O)O)C(=O)N[C@@H](CCCNC(=N)N)C(=O)N[C@H](C(N)=O)C(C)C)[C@@H](C)CC)[C@@H](C)CC)[C@@H](C)CC)C(C)C)C(C)C [compound 180] (H-IVLSLD[dV]PIKLK([γGlu-C18 diacid])QILLKQARQK[Aib]QRAQAEKNKRILERV-NH2; N-terminus assumed)
